Experimental data taken from the CheMixHub ionic liquid set.

Experiment: xn = mol fraction of the nth substance listed
Details: 100 kPa

CCCCCCCCCCCCCCCC[N+](C)(C)C.[Br-] + NCC(=O)NCC(=O)O + O
Details	electrical conductivity [S/m]
293.15 K, x1 = 3.61e-06, x2 = 0.0001802	0.0032
293.15 K, x1 = 5.41e-06, x2 = 0.0001802	0.0042
293.15 K, x1 = 7.22e-06, x2 = 0.0001802	0.0053
293.15 K, x1 = 9.02e-06, x2 = 0.0001802	0.006
293.15 K, x1 = 3.428e-05, x2 = 0.0001802	0.0097
293.15 K, x1 = 3.608e-05, x2 = 0.0001802	0.0099
298.15 K, x1 = 1.8e-06, x2 = 9.009e-05	0.0016
298.15 K, x1 = 3.61e-06, x2 = 9.009e-05	0.0027
298.15 K, x1 = 5.41e-06, x2 = 9.009e-05	0.0037
298.15 K, x1 = 5.41e-06, x2 = 0.0001802	0.0044
298.15 K, x1 = 7.21e-06, x2 = 9.009e-05	0.0048
298.15 K, x1 = 7.22e-06, x2 = 0.0001802	0.0054
298.15 K, x1 = 9.02e-06, x2 = 0.0001802	0.0062
298.15 K, x1 = 1.082e-05, x2 = 9.009e-05	0.0065
298.15 K, x1 = 1.082e-05, x2 = 0.0001802	0.0072
298.15 K, x1 = 1.262e-05, x2 = 1.802e-05	0.0046
298.15 K, x1 = 2.885e-05, x2 = 9.009e-05	0.0094
298.15 K, x1 = 3.067e-05, x2 = 0.0001802	0.0098
298.15 K, x1 = 3.245e-05, x2 = 9.009e-05	0.0099
303.15 K, x1 = 1.8e-06, x2 = 9.009e-05	0.0018
303.15 K, x1 = 3.61e-06, x2 = 9.009e-05	0.0029
303.15 K, x1 = 3.61e-06, x2 = 0.0001802	0.0036
303.15 K, x1 = 5.41e-06, x2 = 0.0001802	0.0046
303.15 K, x1 = 7.21e-06, x2 = 9.009e-05	0.005
303.15 K, x1 = 7.22e-06, x2 = 0.0001802	0.0055
303.15 K, x1 = 9.02e-06, x2 = 9.009e-05	0.006
303.15 K, x1 = 9.02e-06, x2 = 0.0001802	0.0064
303.15 K, x1 = 1.081e-05, x2 = 1.802e-05	0.0044
303.15 K, x1 = 1.082e-05, x2 = 9.009e-05	0.007
303.15 K, x1 = 1.082e-05, x2 = 0.0001802	0.0073
303.15 K, x1 = 1.262e-05, x2 = 1.802e-05	0.0051
303.15 K, x1 = 1.262e-05, x2 = 9.009e-05	0.0078
303.15 K, x1 = 1.263e-05, x2 = 0.0001802	0.0081
303.15 K, x1 = 1.622e-05, x2 = 1.802e-05	0.0061
303.15 K, x1 = 1.623e-05, x2 = 9.009e-05	0.0089
303.15 K, x1 = 1.624e-05, x2 = 0.0001802	0.009
303.15 K, x1 = 1.802e-05, x2 = 1.802e-05	0.0065
303.15 K, x1 = 1.803e-05, x2 = 9.009e-05	0.0092
303.15 K, x1 = 1.804e-05, x2 = 0.0001802	0.0098
303.15 K, x1 = 1.982e-05, x2 = 1.802e-05	0.007
303.15 K, x1 = 1.983e-05, x2 = 9.009e-05	0.0094
303.15 K, x1 = 1.984e-05, x2 = 0.0001802	0.0099
303.15 K, x1 = 2.164e-05, x2 = 9.009e-05	0.0095
303.15 K, x1 = 2.344e-05, x2 = 9.009e-05	0.0097
303.15 K, x1 = 2.524e-05, x2 = 9.009e-05	0.0099
303.15 K, x1 = 2.703e-05, x2 = 1.802e-05	0.0079
303.15 K, x1 = 2.883e-05, x2 = 1.802e-05	0.0081
303.15 K, x1 = 3.064e-05, x2 = 1.802e-05	0.0082
303.15 K, x1 = 3.244e-05, x2 = 1.802e-05	0.0084
303.15 K, x1 = 3.424e-05, x2 = 1.802e-05	0.0084
303.15 K, x1 = 3.604e-05, x2 = 1.802e-05	0.0086
308.15 K, x1 = 1.8e-06, x2 = 9.009e-05	0.0018
308.15 K, x1 = 1.8e-06, x2 = 0.0001802	0.003
308.15 K, x1 = 3.61e-06, x2 = 9.009e-05	0.003
308.15 K, x1 = 3.61e-06, x2 = 0.0001802	0.0039
308.15 K, x1 = 5.41e-06, x2 = 9.009e-05	0.0042
308.15 K, x1 = 5.41e-06, x2 = 0.0001802	0.0049
308.15 K, x1 = 7.21e-06, x2 = 9.009e-05	0.0052
308.15 K, x1 = 7.22e-06, x2 = 0.0001802	0.0057
308.15 K, x1 = 9.02e-06, x2 = 0.0001802	0.0066
308.15 K, x1 = 1.081e-05, x2 = 1.802e-05	0.0047
308.15 K, x1 = 1.262e-05, x2 = 1.802e-05	0.0055
308.15 K, x1 = 1.262e-05, x2 = 9.009e-05	0.0081
308.15 K, x1 = 1.442e-05, x2 = 1.802e-05	0.006
308.15 K, x1 = 1.622e-05, x2 = 1.802e-05	0.0063
308.15 K, x1 = 1.624e-05, x2 = 0.0001802	0.0099
308.15 K, x1 = 1.802e-05, x2 = 1.802e-05	0.0068
308.15 K, x1 = 1.803e-05, x2 = 9.009e-05	0.01
308.15 K, x1 = 2.163e-05, x2 = 1.802e-05	0.0076
308.15 K, x1 = 2.343e-05, x2 = 1.802e-05	0.0077
308.15 K, x1 = 2.523e-05, x2 = 1.802e-05	0.008
308.15 K, x1 = 2.703e-05, x2 = 1.802e-05	0.0082
308.15 K, x1 = 2.883e-05, x2 = 1.802e-05	0.0084
308.15 K, x1 = 3.064e-05, x2 = 1.802e-05	0.0084
308.15 K, x1 = 3.244e-05, x2 = 1.802e-05	0.0086
308.15 K, x1 = 3.424e-05, x2 = 1.802e-05	0.0087
308.15 K, x1 = 3.604e-05, x2 = 1.802e-05	0.009
313.15 K, x1 = 1.8e-06, x2 = 9.009e-05	0.0019
313.15 K, x1 = 1.8e-06, x2 = 0.0001802	0.0031
313.15 K, x1 = 3.61e-06, x2 = 9.009e-05	0.0033
313.15 K, x1 = 3.61e-06, x2 = 0.0001802	0.004
313.15 K, x1 = 5.41e-06, x2 = 9.009e-05	0.0045
313.15 K, x1 = 5.41e-06, x2 = 0.0001802	0.005
313.15 K, x1 = 7.21e-06, x2 = 1.802e-05	0.0039
313.15 K, x1 = 7.21e-06, x2 = 9.009e-05	0.0055
313.15 K, x1 = 7.22e-06, x2 = 0.0001802	0.0059
313.15 K, x1 = 9.02e-06, x2 = 9.009e-05	0.0064
313.15 K, x1 = 9.02e-06, x2 = 0.0001802	0.0067
313.15 K, x1 = 1.082e-05, x2 = 9.009e-05	0.0075
313.15 K, x1 = 1.082e-05, x2 = 0.0001802	0.0078
313.15 K, x1 = 1.262e-05, x2 = 1.802e-05	0.006
313.15 K, x1 = 1.262e-05, x2 = 9.009e-05	0.0084
313.15 K, x1 = 1.263e-05, x2 = 0.0001802	0.0085
313.15 K, x1 = 1.442e-05, x2 = 1.802e-05	0.0065
313.15 K, x1 = 1.442e-05, x2 = 9.009e-05	0.0091
313.15 K, x1 = 1.443e-05, x2 = 0.0001802	0.0094
313.15 K, x1 = 1.622e-05, x2 = 1.802e-05	0.0069
313.15 K, x1 = 1.802e-05, x2 = 1.802e-05	0.0075
313.15 K, x1 = 1.982e-05, x2 = 1.802e-05	0.0078
313.15 K, x1 = 2.163e-05, x2 = 1.802e-05	0.0081
313.15 K, x1 = 2.343e-05, x2 = 1.802e-05	0.0082
313.15 K, x1 = 2.523e-05, x2 = 1.802e-05	0.0084
313.15 K, x1 = 2.703e-05, x2 = 1.802e-05	0.0086
313.15 K, x1 = 2.883e-05, x2 = 1.802e-05	0.0089
313.15 K, x1 = 3.064e-05, x2 = 1.802e-05	0.009
313.15 K, x1 = 3.244e-05, x2 = 1.802e-05	0.0093
313.15 K, x1 = 3.424e-05, x2 = 1.802e-05	0.0095
313.15 K, x1 = 3.604e-05, x2 = 1.802e-05	0.0097

CCCCCCCCCCCCCCCC[n+]1ccccc1.[Br-] + NCC(=O)NCC(=O)O + O
electrical conductivity [S/m]
Details	x1 = 8.993e-05, x2 = 0.001802	x1 = 8.996e-05, x2 = 0.001442	x1 = 8.999e-05, x2 = 0.001082	x1 = 9.003e-05, x2 = 0.0007216	x1 = 9.006e-05, x2 = 0.0003609	x1 = 9.009e-05, x2 = 0
298.15 K	0.023	0.022	0.021	0.02	0.019	0.021
303.15 K	0.024	0.023	0.022	0.021	0.02	0.021
308.15 K	0.025	0.024	0.023	0.022	0.021	0.022
313.15 K	0.026	0.025	0.024	0.023	0.022	0.024

CCCCCCCCCCCCCCCC[n+]1ccccc1.[Cl-] + NCC(=O)NCC(=O)O + O
electrical conductivity [S/m]
Details	x1 = 8.993e-05, x2 = 0.001802	x1 = 8.996e-05, x2 = 0.001442	x1 = 8.999e-05, x2 = 0.001082	x1 = 9.003e-05, x2 = 0.0007214	x1 = 9.006e-05, x2 = 0.0003609	x1 = 9.009e-05, x2 = 0
298.15 K	0.024	0.023	0.022	0.021	0.02	0.02
303.15 K	0.025	0.024	0.023	0.022	0.021	0.021
308.15 K	0.027	0.026	0.024	0.023	0.022	0.021
313.15 K	0.028	0.027	0.025	0.024	0.023	0.023
